According to article PMC5626944 (Frontiers in Pharmacology, 2017):
Where two headings read alike, the source gives them in different places.

What was measured:
α3β4* nAChRs = molecular target: T1, α3β4* nAChRs (Mus musculus, UniProt Q8R493+Q8R4G9); experiment: [125I]epibatidine binding, IPN membranes from β2KO mice
T1 construct: from tissue
Experimental: The methods used for preparing brain membranes in hypotonic buffer have been described previously ([Marks et al., 1998], [2007]). Brain membrane preparations were stored as pellets under buffer at -70°C or used immediately. We followed previously published methods for [^125I]epibatidine binding and analysis ([Grady et al., 2010]).

[1] = tested on: WT, α6L9′S, α6KO, α4KO and β2KO mice; experiment: Conditioned place preference; format: in vivo, mouse; settings: for ED50: Mus musculus, read-out: CPP ED50
From the text: Male, 3–6-month-old mice were used in our CPP assays. Various genotypes were used: WT, α6L9′S, α4L9′S (hypersensitive […]), α6KO, α4KO, and β2KO. All WT mice were C57BL/6J and all other genotypes have been backcrossed with C57BL/6J mice for ≥10 generations. The CPP apparatus (Med Associates, East Fairfield, VT, United States) was a rectangular cage with interior dimensions of 46.5 × 12.7 × 12.7(H) cm, divided into three sub-compartments: white and black (each 16.8 cm L) with steel mesh and rod floors, respectively, and a central gray compartment (7.2 cm L) with a solid plastic floor. […] Drop-down doors separated the chambers.
Mice were housed singly and habituated to the experimental room for 3–7 days before initial testing and remained in the experimental room for the duration of the experiment. We chose a biased method for CPP. On day 1 (pre-training) mice were placed in the center chamber and allowed to explore the apparatus freely for 20 min. Time spent in each chamber was recorded, and drug pairing was determined by the least preferred chamber. Mice with a severe initial bias for one chamber (defined as ≥65% time spent in one conditioning chamber) were excluded. On days 2, 4, 6, and 8, mice were injected with the drug of interest, and were confined to the drug-paired chamber for 20 min. On days 3, 5, 7, and 9, mice were injected with saline and confined to the opposite chamber. On day 10 (post-training), mice were again given free access to the apparatus for 20 min, and the time spent in each chamber was recorded. CPP was determined by measuring the change in the difference between the time spent in the drug-paired chamber and the saline-paired chamber from pre- to post-training.

WT mice = experiment: Marble burying assay; format: in vivo, mouse; settings: 0.3 mg/kg ip
Adrenergic, Alpha 1A = tested on: T2, Adrenergic, Alpha 1A; experiment: NovaScreen competition binding; settings: 1 µM
T2 construct: PerkinElmer – Caliper Life Sciences (NovaScreen service)

Adrenergic, Alpha 2A (h) = tested on: T3, Adrenergic, Alpha 2A (h); experiment: NovaScreen competition binding; set-up: species or system human; settings: 1 µM
T3 construct: PerkinElmer – Caliper Life Sciences (NovaScreen service)

Adrenergic, Alpha 2C (h) = tested on: T4, Adrenergic, Alpha 2C (h); experiment: NovaScreen competition binding; set-up: species or system human; settings: 1 µM
T4 construct: PerkinElmer – Caliper Life Sciences (NovaScreen service)

Adrenergic, Beta 1 (h) = experiment: NovaScreen competition binding; set-up: species or system human; settings: 1 µM
Dopamine, D1 (h) = experiment: NovaScreen competition binding; set-up: species or system human; settings: 1 µM
Dopamine, D3 = experiment: NovaScreen competition binding; settings: 1 µM
[2] = tested on: Glutamate, MK-801 Site (Ionotropic); experiment: NovaScreen competition binding; settings: 1 µM
[3] = tested on: Norepinephrine Transporter; experiment: NovaScreen competition binding; settings: 1 µM
Serotonin, 5HT1A (h) = experiment: NovaScreen competition binding; set-up: species or system human; settings: 1 µM
Serotonin, 5HT2A = experiment: NovaScreen competition binding; settings: 1 µM
Serotonin, 5HT4 = experiment: NovaScreen competition binding; settings: 1 µM
[4] = tested on: Nicotinic, Neuronal (α-BnTx insensitive); experiment: NovaScreen competition binding; settings: 1 µM
From the text: (§1) Assays included the nicotinic drug [^3H]epibatidine binding to α-bungarotoxin-insensitive nAChRs, the 5-HT3 inhibitor [N-methyl-^3H]GR65630 to mouse receptors in N1E-115 cells, and human receptors expressed in a clonal cell line. Other assays included monoamine oxidase A, monoamine oxidase B, 5-HT transporter, norepinephrine transporter, and dopamine transporter, as well as other. G-protein-coupled receptors, ion channels, enzymes, and transporters.

[5] = tested on: Potassium Channel, ATP-Sensitive; experiment: NovaScreen competition binding; settings: 1 µM
From the text: as §1

Endothelin, ET-A (h) = tested on: T5, Endothelin, ET-A (h); experiment: NovaScreen competition binding; set-up: species or system human; settings: 1 µM
T5 construct: PerkinElmer – Caliper Life Sciences (NovaScreen service)

[6] = tested on: T6, Phosphodiesterase, PDE4A1A (h); experiment: NovaScreen enzyme assay; format: biochemical, human; settings: 1 µM
T6 construct: PerkinElmer – Caliper Life Sciences (NovaScreen service)

T1 sequence (Q8R4G9 26-499): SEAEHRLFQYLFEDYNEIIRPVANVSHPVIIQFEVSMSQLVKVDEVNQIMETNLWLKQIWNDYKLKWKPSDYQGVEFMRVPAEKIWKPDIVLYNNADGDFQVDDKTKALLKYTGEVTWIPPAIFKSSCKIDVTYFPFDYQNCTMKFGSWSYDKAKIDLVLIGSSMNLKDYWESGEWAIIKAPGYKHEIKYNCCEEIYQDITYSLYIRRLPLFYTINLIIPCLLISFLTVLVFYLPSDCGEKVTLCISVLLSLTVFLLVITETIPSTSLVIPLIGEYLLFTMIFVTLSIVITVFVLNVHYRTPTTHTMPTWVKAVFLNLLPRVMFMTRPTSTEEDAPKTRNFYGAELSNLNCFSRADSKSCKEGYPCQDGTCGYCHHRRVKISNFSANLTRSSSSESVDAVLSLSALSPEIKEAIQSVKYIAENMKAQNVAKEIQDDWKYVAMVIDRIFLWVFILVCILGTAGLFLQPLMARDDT
T1 sequence (Q8R493 21-495): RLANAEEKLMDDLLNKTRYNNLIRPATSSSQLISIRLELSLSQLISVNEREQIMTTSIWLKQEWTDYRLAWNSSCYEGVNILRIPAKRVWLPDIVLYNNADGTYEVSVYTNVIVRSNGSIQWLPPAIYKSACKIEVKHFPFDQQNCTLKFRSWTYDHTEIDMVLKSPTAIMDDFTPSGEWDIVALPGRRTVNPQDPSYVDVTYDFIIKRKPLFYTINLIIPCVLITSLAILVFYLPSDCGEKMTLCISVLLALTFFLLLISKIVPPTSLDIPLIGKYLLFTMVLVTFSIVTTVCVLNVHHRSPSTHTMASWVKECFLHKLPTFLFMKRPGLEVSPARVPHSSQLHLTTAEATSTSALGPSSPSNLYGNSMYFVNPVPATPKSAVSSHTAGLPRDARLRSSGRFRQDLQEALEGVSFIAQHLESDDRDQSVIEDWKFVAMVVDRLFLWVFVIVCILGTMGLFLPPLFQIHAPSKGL

## C1=C(/c2cncnc2)CCCNCC/1 [TC299423, (E)-5-(pyrimidin-5-yl)-1,2,3,4,7,8-hexahydroazocine]
α3β4* nAChRs
  Ki: 18 ± 0.7 nM
[1]; 0.012 mg/kg
  CPP difference scores in α4KO mice vs WT: no effect
  CPP difference scores in α6KO and β2KO mice vs WT: dramatically reduced
[1]; WT mice, Michaelis–Menten fit
  ED50: 4 ± 3 µg/kg
[1]; α6L9′S mice
  ED50: < 1 µg/kg
[1]; WT mice, 0.012 mg/kg, t-test p = 0.047
  CPP difference score vs saline-injected control: marginally significant increase
[1]; WT mice, 1, 4, 12, 25 μg/kg, one-way ANOVA
  Overall effect on CPP: no significant overall effect
[1]; α6L9′S mice, 1, 4, 12, 25 μg/kg, one-way ANOVA
  Overall effect on the CPP difference score: highly significant overall effect
[1]; α6L9′S mice, 1 and 25 μg/kg, Tukey HSD p < 0.05
  CPP difference score vs saline-injected controls: significantly greater than the saline-injected controls
WT mice
  Marbles buried compared with saline: significantly fewer marbles
WT mice; p < 0.001
  Marbles buried compared with varenicline: fewer marbles
Adrenergic, Alpha 1A
  Hit: FALSE
Adrenergic, Alpha 1A; [3H]-7-MeOxy-Prazosin
  Inhibition: -0.05%
Adrenergic, Alpha 2A (h)
  Hit: FALSE
Adrenergic, Alpha 2A (h); [3H]MK-912
  Inhibition: 6.75%
Adrenergic, Alpha 2C (h)
  Hit: FALSE
Adrenergic, Alpha 2C (h); [3H]MK-912
  Inhibition: 6.28%
Adrenergic, Beta 1 (h)
  Hit: FALSE
Adrenergic, Beta 1 (h); [125I] (-) Iodocyanopindolol
  Inhibition: 11.21%
Dopamine, D1 (h)
  Hit: FALSE
Dopamine, D1 (h); [3H]-SCH23390
  Inhibition: -2.94%
Dopamine, D3
  Hit: FALSE
Dopamine, D3; [3H]7-OH-DPAT
  Inhibition: -16.93%
[2]
  Hit: FALSE
[2]; [3H]MK-801
  Inhibition: 5.46%
[3]
  Hit: FALSE
[3]; [3H]Nisoxetine
  Inhibition: 23.72%
Serotonin, 5HT1A (h)
  Hit: FALSE
Serotonin, 5HT1A (h); [3H]-8-OH-DPAT
  Inhibition: 17.60%
Serotonin, 5HT2A
  Hit: FALSE
Serotonin, 5HT2A; [3H]Ketanserin
  Inhibition: 12.43%
Serotonin, 5HT4
  Hit: FALSE
Serotonin, 5HT4; [3H]GR 113808
  Inhibition: -16.64%
[4]
  Hit: TRUE (TC299423 inhibited >50% of the reference radioligand for two sites)
[4]; [3H]Epibatidine
  Inhibition: 93.33%
[5]
  Hit: TRUE (TC299423 inhibited >50% of the reference radioligand for two sites)
[5]; [3H]Glibenclamide
  Inhibition: 52.12%
Endothelin, ET-A (h)
  Hit: FALSE
Endothelin, ET-A (h); [125I] Endothelin-1
  Inhibition: 8.93%
[6]
  Hit: FALSE
